# Experimental data taken from PubChem BioAssay AID2179 (Vanderbilt High Throughput Screening Facility, 2009).
# Activity calls are given as the source filed them. No rule for the calls is given here.
# Biological target: Metabotropic glutamate receptor 4 (Rattus norvegicus) (UniProt P31423)
# Experiment: PubChem AID 2179
# Details: HEK/GIRK rat mGluR4, thallium flux, glutamate CRC fold-shift
# Metabotropic glutamate receptor 4 (Rattus norvegicus), sequence (P31423 whole entry, looked up): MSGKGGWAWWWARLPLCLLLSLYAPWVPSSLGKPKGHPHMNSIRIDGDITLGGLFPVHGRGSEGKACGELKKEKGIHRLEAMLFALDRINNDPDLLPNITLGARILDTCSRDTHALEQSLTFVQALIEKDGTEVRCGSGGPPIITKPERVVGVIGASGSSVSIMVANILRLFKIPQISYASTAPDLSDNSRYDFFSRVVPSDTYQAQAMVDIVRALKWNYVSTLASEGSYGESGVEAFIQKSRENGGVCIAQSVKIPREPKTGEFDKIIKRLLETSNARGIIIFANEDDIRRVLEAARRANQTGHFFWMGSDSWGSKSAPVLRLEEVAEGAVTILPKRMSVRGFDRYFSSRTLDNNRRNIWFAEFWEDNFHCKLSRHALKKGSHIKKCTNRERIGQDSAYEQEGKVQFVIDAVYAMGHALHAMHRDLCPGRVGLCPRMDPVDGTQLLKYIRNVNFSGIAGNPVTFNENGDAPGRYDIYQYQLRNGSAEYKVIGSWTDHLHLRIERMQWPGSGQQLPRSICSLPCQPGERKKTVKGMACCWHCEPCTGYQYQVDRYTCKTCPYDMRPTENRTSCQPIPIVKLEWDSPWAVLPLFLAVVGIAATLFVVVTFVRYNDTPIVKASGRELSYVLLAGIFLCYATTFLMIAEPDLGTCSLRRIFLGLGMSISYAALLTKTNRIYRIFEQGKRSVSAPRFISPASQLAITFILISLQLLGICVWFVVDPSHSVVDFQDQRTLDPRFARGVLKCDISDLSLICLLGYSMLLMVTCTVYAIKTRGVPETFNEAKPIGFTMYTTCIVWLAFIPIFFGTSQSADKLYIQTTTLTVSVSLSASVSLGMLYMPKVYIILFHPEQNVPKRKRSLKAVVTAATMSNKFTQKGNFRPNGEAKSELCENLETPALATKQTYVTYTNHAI
row,glutamate EC50 in presence of 30 uM compound (lower = stronger potentiation),Compound
1,1180 nM,COc1ccc(NC(=O)c2ccccn2)cc1Cl
2,368 nM,O=C(Nc1cccc(Cl)c1)c1ccccn1
3,307 nM,COc1cc(NC(=O)c2ccccn2)ccc1Cl

# More lines, now with the values behind:
row,Compound,glutamate EC50 in presence of 30 uM compound (lower = stronger potentiation)
1,COc1cc(NC(=O)c2ccccn2)ccc1C,330 nM
2,O=C(Nc1ccc(Cl)c(C(F)(F)F)c1)c1ccccn1,5820 nM (inactive)
3,COc1cc(NC(=O)c2ccccn2)ccc1F,409 nM
4,O=C(Nc1ccc(F)c(C(F)(F)F)c1)c1ccccn1,4010 nM (inactive)
